Experimental data taken from US12077503B2, “Substituted cyclic amides and their use as herbicides” (FMC CORPORATION, priority 2015, dated 2024).

Assays:
Assay type in all cases: in vivo
Kochia (Kochia scoparia) [1] = experiment: Test A preemergence
Procedure, shortened: (§1)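 In a loam soil and sand blend, planted seeds got a preemergence directed soil spray, and young plants at the one- to two-leaf stage, 2–10 cm high, got a postemergence application; ~10 d greenhouse hold; injury rated visually, 0 = none, 100 = complete control.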

[2] = test system: barnyardgrass (Echinochloa crus-galli); experiment: Test A preemergence
Procedure, shortened: as §1

[3] = test system: giant foxtail (Setaria faberii); experiment: Test A preemergence
Procedure, shortened: as §1

[4] = test system: pigweed (Amaranthus retroflexus); experiment: Test A preemergence
[5] = test system: ragweed (common ragweed, Ambrosia elatior); experiment: Test A preemergence
Procedure, shortened: as §1

[6] = test system: ryegrass, Italian (Italian ryegrass, Lolium multiflorum); experiment: Test A preemergence
Procedure, shortened: as §1

[7] = test system: Galium (catchweed bedstraw, Galium aparine); experiment: Test A postemergence; details: postemergence
Procedure, shortened: as §1

Kochia (Kochia scoparia) [8] = experiment: Test A postemergence; details: postemergence
Procedure, shortened: as §1

[9] = test system: barnyardgrass (Echinochloa crus-galli); experiment: Test A postemergence; details: postemergence
Procedure, shortened: as §1

[10] = test system: blackgrass (Alopecurus myosuroides); experiment: Test A postemergence; details: postemergence
Procedure, shortened: as §1

corn (Zea mays) = experiment: Test A postemergence; details: postemergence
Procedure, shortened: as §1

[11] = test system: giant foxtail (Setaria faberii); experiment: Test A postemergence; details: postemergence
Procedure, shortened: as §1

[12] = test system: pigweed (Amaranthus retroflexus); experiment: Test A postemergence; details: postemergence
Procedure, shortened: as §1

[13] = test system: ragweed (common ragweed, Ambrosia elatior); experiment: Test A postemergence; details: postemergence
Procedure, shortened: as §1

[14] = test system: ryegrass, Italian (Italian ryegrass, Lolium multiflorum); experiment: Test A postemergence; details: postemergence
Procedure, shortened: as §1

[15] = test system: wheat (Triticum aestivum); experiment: Test A postemergence; details: postemergence
Procedure, shortened: as §1

[16] = test system: barnyardgrass (Echinochloa crus-galli); experiment: Test B flooded paddy test; details: Flood, 250 g ai/ha
Procedure, shortened: (§2)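 Greenhouse paddy pots with 2-leaf stage plants received compound by direct addition to floodwater 3 cm deep, kept at that level. Scored visually at 13–15 d versus controls (0 no effect; 100 complete control).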

[17] = test system: ducksalad (Heteranthera limosa); experiment: Test B flooded paddy test; details: Flood, 250 g ai/ha
Procedure, shortened: as §2

rice (Oryra sativa) = experiment: Test B flooded paddy test; details: Flood, 250 g ai/ha
Procedure, shortened: as §2

[18] = test system: sedge, umbrella (small-flower umbrella sedge, Cyperus difformis); experiment: Test B flooded paddy test; details: Flood, 250 g ai/ha
Procedure, shortened: as §2

[19] = 125 g ai/ha, preemergence, 0 to 100 scale where 0 is no effect and 100 is complete control
[20] = 500 g ai/ha, Preemergence, visual injury vs untreated controls after approximately 10 d
[21] = 125 g ai/ha, visual injury rating after approximately 10 d
[22] = scale of 0 to 100 where 0 is no effect and 100 is complete control
[23] = 125 g ai/ha, preemergence, 0 to 100 scale (0 no effect, 100 complete control)
[24] = Preemergence, 500 g ai/ha, visual injury approx. 10 d
[25] = 125 g ai/ha, visual injury rating on 0 to 100 scale (0 no effect, 100 complete control), approx. 10 d
[26] = 500 g ai/ha, 0 to 100 scale, 0 no effect, 100 complete control
[27] = 0 to 100 scale where 0 is no effect and 100 is complete control, 13 to 15 d

O=C1NC[C@H](c2cccc(C(F)(F)F)c2)[C@H]1C(=O)Nc1ccccc1[N+](=O)[O-] [Compound 825]
Kochia plant response rating (Kochia (Kochia scoparia) [1]; [19]): 20 | Kochia plant response rating (0 to 100 scale where 0 is no effect and 100 is complete control) (Kochia (Kochia scoparia) [1]; [20]): 60 | Barnyardgrass plant response rating [2, 19]: 70 | Barnyardgrass plant response rating (0 to 100 scale where 0 is no effect and 100 is complete control) [2, 20]: 90 | Foxtail, Giant plant response rating [3, 19]: 90 | Foxtail, Giant plant response rating (0 to 100 scale where 0 is no effect and 100 is complete control) [3, 20]: 90 | Pigweed plant response rating [4, 19]: 0 | Pigweed plant response rating (0 to 100 scale where 0 is no effect and 100 is complete control) [4, 20]: 30 | Ragweed plant response rating [5, 19]: 20 | Ragweed plant response rating (0 to 100 scale where 0 is no effect and 100 is complete control) [5, 20]: 20 | Ryegrass, Italian plant response rating [6, 19]: 20 | Ryegrass, Italian plant response rating (0 to 100 scale where 0 is no effect and 100 is complete control) [6, 20]: 40 | Galium plant response rating (0 to 100 scale, 0 no effect, 100 complete control) [7, 21]: 30 | Kochia plant response rating (0 to 100 scale, 0 no effect, 100 complete control) (Kochia (Kochia scoparia) [8]; [21]): 0 | Barnyardgrass plant response rating (0 to 100 scale, 0 no effect, 100 complete control) [9, 21]: 80 | Blackgrass plant response rating (0 to 100 scale, 0 no effect, 100 complete control) [10, 21]: 40 | Corn plant response rating (0 to 100 scale, 0 no effect, 100 complete control) (corn (Zea mays); [21]): 20 | Foxtail, Giant plant response rating (0 to 100 scale, 0 no effect, 100 complete control) [11, 21]: 90 | Pigweed plant response rating (0 to 100 scale, 0 no effect, 100 complete control) [12, 21]: 0 | Ragweed plant response rating (0 to 100 scale, 0 no effect, 100 complete control) [13, 21]: 20 | Ryegrass, Italian plant response rating (0 to 100 scale, 0 no effect, 100 complete control) [14, 21]: 20 | Wheat plant response rating (0 to 100 scale, 0 no effect, 100 complete control) [15, 21]: 40 | Barnyardgrass plant response rating [16, 22]: 0 | Ducksalad plant response rating [17, 22]: 80 | Rice plant response rating (rice (Oryra sativa); [22]): 25 | Sedge, Umbrella plant response rating [18, 22]: 0

CN1CC(c2ccc(F)cc2)C(C(=O)Nc2ccc(F)cc2F)C1=O (centres unmarked) [Compound 440]
Plant response rating, Kochia (Kochia (Kochia scoparia) [1]; [23]): 60 | Kochia plant response rating (0 to 100 scale, 0 is no effect, 100 is complete control) (Kochia (Kochia scoparia) [1]; [24]): 70 | Plant response rating, Barnyardgrass [2, 23]: 90 | Barnyardgrass plant response rating (0 to 100 scale, 0 is no effect, 100 is complete control) [2, 24]: 100 | Plant response rating, Foxtail, Giant [3, 23]: 90 | Foxtail, Giant plant response rating (0 to 100 scale, 0 is no effect, 100 is complete control) [3, 24]: 100 | Plant response rating, Pigweed [4, 23]: 20 | Pigweed plant response rating (0 to 100 scale, 0 is no effect, 100 is complete control) [4, 24]: 80 | Plant response rating, Ragweed [5, 23]: 20 | Ragweed plant response rating (0 to 100 scale, 0 is no effect, 100 is complete control) [5, 24]: 40 | Plant response rating, Ryegrass, Italian [6, 23]: 0 | Ryegrass, Italian plant response rating (0 to 100 scale, 0 is no effect, 100 is complete control) [6, 24]: 50 | Galium plant response rating [7, 25]: 40 | Plant response rating, Galium [7, 26]: 40 | Kochia plant response rating (Kochia (Kochia scoparia) [8]; [25]): 30 | Plant response rating, Kochia (Kochia (Kochia scoparia) [8]; [26]): 40 | Barnyardgrass plant response rating [9, 25]: 90 | Plant response rating, Barnyardgrass [9, 26]: 90 | Blackgrass plant response rating [10, 25]: 30 | Plant response rating, Blackgrass [10, 26]: 50 | Corn plant response rating (corn (Zea mays); [25]): 0 | Plant response rating, Corn (corn (Zea mays); [26]): 20 | Foxtail, Giant plant response rating [11, 25]: 90 | Plant response rating, Foxtail, Giant [11, 26]: 90 | Pigweed plant response rating [12, 25]: 0 | Plant response rating, Pigweed [12, 26]: 20 | Ragweed plant response rating [13, 25]: 0 | Plant response rating, Ragweed [13, 26]: 0 | Ryegrass, Italian plant response rating [14, 25]: 0 | Plant response rating, Ryegrass, Italian [14, 26]: 60 | Wheat plant response rating [15, 25]: 0 | Plant response rating, Wheat [15, 26]: 50 | Plant response rating, Barnyardgrass [16, 27]: 70 | Plant response rating, Ducksalad [17, 27]: 95 | Plant response rating, Rice (rice (Oryra sativa); [27]): 0 | Plant response rating, Sedge, Umbrella [18, 27]: 0
